Activity calls are given as the source filed them. No rule for the calls is given here.
System: CCRIS mutagenicity, Ames/micronucleus/aberration tests
Test: CCRIS mutagenicity studies
[1] = Test System: AMES SALMONELLA TYPHIMURIUM, Strain/Indicator: TA98, Metabolic Activation: HAMSTER, LIVER, S-9, AROCLOR 1254 (10%), Method: PREINCUBATION
[2] = Test System: AMES SALMONELLA TYPHIMURIUM, Strain/Indicator: TA98, Metabolic Activation: NONE, Method: PREINCUBATION
[3] = Test System: AMES SALMONELLA TYPHIMURIUM, Strain/Indicator: TA98, Metabolic Activation: RAT, LIVER, S-9, AROCLOR 1254 (10%), Method: PREINCUBATION
[4] = Test System: AMES SALMONELLA TYPHIMURIUM, Strain/Indicator: TA100, Metabolic Activation: HAMSTER, LIVER, S-9, AROCLOR 1254 (10%), Method: PREINCUBATION
[5] = Test System: AMES SALMONELLA TYPHIMURIUM, Strain/Indicator: TA100, Metabolic Activation: NONE, Method: PREINCUBATION
[6] = Test System: AMES SALMONELLA TYPHIMURIUM, Strain/Indicator: TA100, Metabolic Activation: RAT, LIVER, S-9, AROCLOR 1254 (10%), Method: PREINCUBATION
[7] = Test System: AMES SALMONELLA TYPHIMURIUM, Strain/Indicator: TA1535, Metabolic Activation: HAMSTER, LIVER, S-9, AROCLOR 1254 (10%), Method: PREINCUBATION
[8] = Test System: AMES SALMONELLA TYPHIMURIUM, Strain/Indicator: TA1535, Metabolic Activation: NONE, Method: PREINCUBATION
[9] = Test System: AMES SALMONELLA TYPHIMURIUM, Strain/Indicator: TA1535, Metabolic Activation: RAT, LIVER, S-9, AROCLOR 1254 (10%), Method: PREINCUBATION
[10] = Test System: AMES SALMONELLA TYPHIMURIUM, Strain/Indicator: TA1537, Metabolic Activation: HAMSTER, LIVER, S-9, AROCLOR 1254 (10%), Method: PREINCUBATION
[11] = Test System: AMES SALMONELLA TYPHIMURIUM, Strain/Indicator: TA1537, Metabolic Activation: NONE, Method: PREINCUBATION
[12] = Test System: AMES SALMONELLA TYPHIMURIUM, Strain/Indicator: TA1537, Metabolic Activation: RAT, LIVER, S-9, AROCLOR 1254 (10%), Method: PREINCUBATION
[13] = Test System: AMES SALMONELLA TYPHIMURIUM, Strain/Indicator: TA98, Metabolic Activation: NONE, Method: STANDARD PLATE
[14] = Test System: AMES SALMONELLA TYPHIMURIUM, Strain/Indicator: TA98, Metabolic Activation: RAT, LIVER, S-9, AROCLOR 1254, Method: STANDARD PLATE
[15] = Test System: AMES SALMONELLA TYPHIMURIUM, Strain/Indicator: TA100, Metabolic Activation: NONE, Method: STANDARD PLATE
[16] = Test System: AMES SALMONELLA TYPHIMURIUM, Strain/Indicator: TA100, Metabolic Activation: RAT, LIVER, S-9, AROCLOR 1254, Method: STANDARD PLATE
[17] = Test System: AMES SALMONELLA TYPHIMURIUM, Strain/Indicator: TA104, Metabolic Activation: NONE, Method: PREINCUBATION
[18] = Test System: Mouse lymphoma, Strain/Indicator: L5178Y (tk+/tk-), Metabolic Activation: None, Method: Suspension/plate
[19] = Test System: Mouse lymphoma, Strain/Indicator: L5178Y (tk+/tk-), Metabolic Activation: Rat, Liver, S-9, Aroclor 1254, Method: Suspension/plate

Q: Which results are given for `c1ccc(P(c2ccccc2)c2ccccc2)cc1`?
A: mutagenic call [1]: inactive; negative; mutagenic call [2]: inactive; negative; mutagenic call [3]: inactive; negative; mutagenic call [4]: inactive; negative; mutagenic call [5]: inactive; negative; mutagenic call [6]: inactive; negative; mutagenic call [7]: inactive; negative; mutagenic call [8]: inactive; negative; mutagenic call [9]: inactive; negative; mutagenic call [10]: inactive; negative; mutagenic call [11]: inactive; negative; mutagenic call [12]: inactive; negative

Q: `C[C@H](CCC(=O)O)[C@H]1CC[C@H]2[C@@H]3CC[C@@H]4CC(=O)CC[C@]4(C)[C@H]3CC(=O)[C@]12C` was tested. Which mutagenic call (Test System: AMES SALMONELLA TYPHIMURIUM, Strain/Indicator: TA98, Metabolic Activation: NONE, Method: FLUCTUATION TEST) did it give?
A: inactive; negative

Q: What about the mutagenic call [2] of the same compound?
A: inactive; negative

Q: And the mutagenic call (Test System: AMES SALMONELLA TYPHIMURIUM, Strain/Indicator: TA100, Metabolic Activation: NONE, Method: FLUCTUATION TEST)?
A: inactive; negative

Q: What does the source list for `CN(C)CCNS(=O)(=O)c1cccc2cccnc12`?
A: mutagenic call [13]: inactive; negative; mutagenic call [14]: inactive; negative; mutagenic call [15]: inactive; negative; mutagenic call [16]: inactive; negative; mutagenic call (Test System: AMES SALMONELLA TYPHIMURIUM, Strain/Indicator: TA1535, Metabolic Activation: NONE, Method: STANDARD PLATE): inactive; negative; mutagenic call (Test System: AMES SALMONELLA TYPHIMURIUM, Strain/Indicator: TA1535, Metabolic Activation: RAT, LIVER, S-9, AROCLOR 1254, Method: STANDARD PLATE): inactive; negative; mutagenic call (Test System: AMES SALMONELLA TYPHIMURIUM, Strain/Indicator: TA1537, Metabolic Activation: NONE, Method: STANDARD PLATE): inactive; negative; mutagenic call (Test System: AMES SALMONELLA TYPHIMURIUM, Strain/Indicator: TA1537, Metabolic Activation: RAT, LIVER, S-9, AROCLOR 1254, Method: STANDARD PLATE): inactive; negative

Q: How did the mutagenic call (Test System: CHINESE HAMSTER V-79, Strain/Indicator: V-79/8-AZAGUANINE, Metabolic Activation: NONE, Method: STANDARD PLATE) turn out when `c1ccc2cc3c4c(ccc3cc2c1)CCC1OC41` (stereo not drawn) was run?
A: active; positive

Q: With `OCc1cc2ccc3cccnc3c2[nH]1` as the compound, how does the mutagenic call [13] read?
A: inactive; negative

Q: And the mutagenic call (Test System: E. COLI, Strain/Indicator: WP2 TM9, Metabolic Activation: NONE, Method: STANDARD PLATE)?
A: inactive; negative

Q: What does the source list for `C=C(C)C(=O)OCC(Br)CBr` (stereo not drawn)?
A: mutagenic call [1]: active; positive; mutagenic call [2]: inactive; negative; mutagenic call [3]: inactive; negative; mutagenic call [4]: active; positive; mutagenic call [5]: inactive; negative; mutagenic call [6]: active; positive; mutagenic call [7]: active; positive; mutagenic call [8]: inactive; negative; mutagenic call [9]: active; positive; mutagenic call [10]: inactive; negative; mutagenic call [11]: inactive; negative; mutagenic call [12]: inactive; negative

Q: Which mutagenic call (Test System: AMES SALMONELLA TYPHIMURIUM, Strain/Indicator: TA98(NR), Metabolic Activation: NONE, Method: PREINCUBATION) does the source give for `Nc1ccc(Nc2ccc([N+](=O)[O-])cc2)cc1` here?
A: inactive; negative

Q: And the mutagenic call [2]?
A: active; positive

Q: What about the mutagenic call (Test System: AMES SALMONELLA TYPHIMURIUM, Strain/Indicator: TA98, Metabolic Activation: RAT, LIVER, S-9, AROCLOR 1254, Method: PREINCUBATION) of the same compound?
A: active; positive

Q: Which results are given for `O=C(Cl)CCc1ccccc1`?
A: mutagenic call [2]: active; positive; mutagenic call (Test System: AMES SALMONELLA TYPHIMURIUM, Strain/Indicator: TA98, Metabolic Activation: RAT LIVER S-9, PCB, Method: PREINCUBATION): active; positive; mutagenic call [5]: active; positive; mutagenic call (Test System: AMES SALMONELLA TYPHIMURIUM, Strain/Indicator: TA100, Metabolic Activation: RAT LIVER S-9, PCB, Method: PREINCUBATION): active; positive; mutagenic call [17]: active; positive; mutagenic call (Test System: AMES SALMONELLA TYPHIMURIUM, Strain/Indicator: TA104, Metabolic Activation: RAT LIVER S-9, PCB, Method: PREINCUBATION): active; positive; mutagenic call (Test System: E.COLI, Strain/Indicator: WP2 UVRA, Metabolic Activation: NONE, Method: PREINCUBATION): inactive; negative; mutagenic call (Test System: E.COLI, Strain/Indicator: WP2 UVRA, Metabolic Activation: RAT LIVER S-9, PCB, Method: PREINCUBATION): active; positive

Q: Which results are given for `CC1CC(=O)O1` (stereo not drawn)?
A: mutagenic call (Test System: AMES SALMONELLA TYPHIMURIUM, Strain/Indicator: G46, Metabolic Activation: NONE, Method: STANDARD PLATE): active; positive; mutagenic call (Test System: AMES SALMONELLA TYPHIMURIUM, Strain/Indicator: TA98, Metabolic Activation: HAMSTER, LIVER, S-9, AROCLOR 1254 (30%), Method: PREINCUBATION): active; positive; mutagenic call [2]: active; positive; mutagenic call (Test System: AMES SALMONELLA TYPHIMURIUM, Strain/Indicator: TA98, Metabolic Activation: RAT, LIVER, S-9, AROCLOR 1254 (30%), Method: PREINCUBATION): active; positive; mutagenic call (Test System: AMES SALMONELLA TYPHIMURIUM, Strain/Indicator: TA100, Metabolic Activation: HAMSTER, LIVER, S-9, AROCLOR 1254 (30%), Method: PREINCUBATION): active; positive; mutagenic call [5]: active; positive; mutagenic call (Test System: AMES SALMONELLA TYPHIMURIUM, Strain/Indicator: TA100, Metabolic Activation: RAT, LIVER, S-9, AROCLOR 1254 (30%), Method: PREINCUBATION): active; positive

Q: How did the mutagenic call (Test System: AMES SALMONELLA TYPHIMURIUM, Strain/Indicator: TA98, Metabolic Activation: HAMSTER, LIVER, S-9, AROCLOR 1254, Method: STANDARD PLATE) turn out when `CC(=O)/C=C/c1ccccc1` was run?
A: inactive; negative

Q: And the mutagenic call [13]?
A: inactive; negative

Q: What about the mutagenic call [14] of the same compound?
A: inactive; negative

Q: And the mutagenic call (Test System: AMES SALMONELLA TYPHIMURIUM, Strain/Indicator: TA100, Metabolic Activation: HAMSTER, LIVER, S-9, AROCLOR 1254, Method: STANDARD PLATE)?
A: active; positive

Q: And the mutagenic call [15]?
A: inactive; negative

Q: What about the mutagenic call [16] of the same compound?
A: active; positive

Q: And the mutagenic call [18]?
A: active; positive

Q: What about the mutagenic call [19] of the same compound?
A: inactive; negative

Q: Which results are given for `CC(C)OC(=O)c1cc(NC(=S)OC(C)C)ccc1Cl`?
A: mutagenic call [18]: inactive; negative; mutagenic call [19]: inactive; negative

Q: Which mutagenic call [16] does the source give for `Fc1ccc2c3c(cccc13)-c1cc3ccccc3cc1-2` here?
A: active; positive

Q: For `Oc1ccc2ccc3c4ccc5ccccc5c4c4c(c3c2c1O)O4`, which mutagenic call (Test System: AMES SALMONELLA TYPHIMURIUM, Strain/Indicator: TA97, Metabolic Activation: NONE, Method: PREINCUBATION) is on record?
A: active; positive

Q: What about the mutagenic call [2] of the same compound?
A: active; positive

Q: What about the mutagenic call [5] of the same compound?
A: active; positive

Q: And the mutagenic call [17]?
A: active; positive

Q: And the mutagenic call (Test System: CHINESE HAMSTER V-79, Strain/Indicator: V-79/6-THIOGUANINE, Metabolic Activation: NONE)?
A: active; positive

Q: `Nc1ncnc2c1ncn2/C=C/C=O` was tested. Which mutagenic call (Test System: AMES SALMONELLA TYPHIMURIUM, Strain/Indicator: HISD3052, Metabolic Activation: NONE, Method: STANDARD PLATE) did it give?
A: active; positive

Source: PubChem BioAssay AID1259407 (Chemical Carcinogenesis Research Information System (CCRIS), 2018)
